Results as given in ChEMBL document CHEMBL1153807, “An inhibitor of CCL2-induced chemotaxis from the fungus Leptoxyphium sp” (J Nat Prod, 2009).
Activity calls are given as the source filed them. The calls are words filed in the database; no cut-off is given here.

Legend:
Type in all cases: cell-based
[1] = target: C-C chemokine receptor type 2 (Homo sapiens) (UniProt P41597); assay: Inhibition of CCR2 in human monocytes assessed as CCL2-induced cell migration at 10 uM after 1.5 hrs by micro-Boyden chamber
Sequence of C-C chemokine receptor type 2 (Homo sapiens) (P41597 whole entry, looked up): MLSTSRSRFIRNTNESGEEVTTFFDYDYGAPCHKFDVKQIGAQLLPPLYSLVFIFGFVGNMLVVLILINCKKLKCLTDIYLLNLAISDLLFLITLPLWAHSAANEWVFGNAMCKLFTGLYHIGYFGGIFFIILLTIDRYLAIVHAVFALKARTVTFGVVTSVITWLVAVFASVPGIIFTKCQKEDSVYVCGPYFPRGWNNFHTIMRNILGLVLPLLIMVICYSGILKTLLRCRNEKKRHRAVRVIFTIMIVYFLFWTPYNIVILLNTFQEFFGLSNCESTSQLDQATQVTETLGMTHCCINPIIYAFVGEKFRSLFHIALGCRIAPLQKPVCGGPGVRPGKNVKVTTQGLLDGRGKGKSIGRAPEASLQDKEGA

[2] = Cytotoxicity against human monocytes at 100 uM after 24 hrs; conditions: monocyte
[3] = target: C-C chemokine receptor type 2 (Homo sapiens) (UniProt P41597); assay: Inhibition of CCR2 in human monocytes assessed as CCL2-induced cell migration at 100 uM after 1.5 hrs by micro-Boyden chamber
[4] = target: C-C chemokine receptor type 2 (Homo sapiens) (UniProt P41597); assay: Inhibition of CCR2 in human monocytes assessed as cell migration at 100 uM after 30 mins

Compound	inhibition [1]	Activity [2]	inhibition [3]	inhibition [4]
O=C1N[C@H](Cc2cc(Cl)c(O)c(Cl)c2)C(=O)N2CCC[C@H]12	Active	Non-toxic		
CC(C)C[C@@H]1C(=O)N[C@@H](Cc2c[nH]c3ccccc23)C(=O)N1C		Non-toxic	inactive	
O=C1N[C@@H](Cc2ccc(O)cc2)C(=O)N2CCC[C@@H]12		Non-toxic	inactive	inactive
CON1C(=O)C2NC(=O)[C@@]13Oc1cc(O)c(Cl)cc1[C@@H]3SS2		Toxic		
